Several values for one entry are separate records, joined by “and”; a condition that tells them apart may be missing. Identical values can stand only once. Inconclusive results and toxic doses are left out. How the source made its calls: active means survival T/C of 150% or more; inactive means T/C below 125% in these data.
Tested on: P388 leukemia ip, CD2F1 mice, survival T/C
Test: NCI In Vivo Anticancer Drug Screen. Data for tumor model P388 Leukemia (intraperitoneal) in CD2F1 (CDF1) mice
Conditions: endpoint: median survival time, higher = longer survival
Summary of the method: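 Mice carrying the transplanted tumor received test compound or vehicle. Survival was recorded in each group, and the value is the treated-group measurement divided by that of the vehicle-treated control group.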

[1] = dose: 25.0 mg/kg/injection, schedule: Q04DX002 (ip), vehicle: saline with Tween-80
[2] = dose: 50.0 mg/kg/injection, schedule: Q04DX002 (ip), vehicle: saline with Tween-80
[3] = dose: 200.0 mg/kg/injection, schedule: Q04DX002 (ip), vehicle: saline with Tween-80
[4] = dose: 400.0 mg/kg/injection, schedule: Q04DX002 (ip), vehicle: saline with Tween-80
[5] = dose: 60.0 mg/kg/injection, schedule: Q01DX005 (ip), vehicle: saline with Tween-80
[6] = dose: 50.0 mg/kg/injection, schedule: Q01DX005 (ip), vehicle: Klucel (hydroxypropylcellulose) (HPC)
[7] = dose: 100.0 mg/kg/injection, schedule: Q01DX005 (ip), vehicle: Klucel (hydroxypropylcellulose) (HPC)
[8] = dose: 200.0 mg/kg/injection, schedule: Q01DX005 (ip), vehicle: Klucel (hydroxypropylcellulose) (HPC)
[9] = dose: 50.0 mg/kg/injection, schedule: Q04DX003 (ip), vehicle: saline with Tween-80
[10] = dose: 100.0 mg/kg/injection, schedule: Q04DX003 (ip), vehicle: saline with Tween-80
[11] = dose: 12.5 mg/kg/injection, schedule: Q01DX009 (ip), vehicle: saline with Tween-80
[12] = dose: 25.0 mg/kg/injection, schedule: Q01DX009 (ip), vehicle: saline with Tween-80
[13] = dose: 50.0 mg/kg/injection, schedule: Q01DX009 (ip), vehicle: saline with Tween-80
[14] = dose: 100.0 mg/kg/injection, schedule: Q01DX009 (ip), vehicle: saline with Tween-80
[15] = dose: 200.0 mg/kg/injection, schedule: Q01DX009 (ip), vehicle: saline with Tween-80
[16] = dose: 50.0 mg/kg/injection, schedule: Q01DX005 (ip), vehicle: saline with Tween-80
[17] = dose: 200.0 mg/kg/injection, schedule: Q01DX005 (ip), vehicle: saline with Tween-80
[18] = dose: 12.5 mg/kg/injection, schedule: Q01DX005 (ip), vehicle: saline with Tween-80
[19] = dose: 120.0 mg/kg/injection, schedule: Q01DX005 (ip), vehicle: saline with Tween-80
[20] = dose: 240.0 mg/kg/injection, schedule: Q01DX005 (ip), vehicle: saline with Tween-80
[21] = dose: 60.0 mg/kg/injection, schedule: Q01DX005 (ip), vehicle: saline
[22] = dose: 120.0 mg/kg/injection, schedule: Q01DX005 (ip), vehicle: saline
[23] = dose: 400.0 mg/kg/injection, schedule: Q01DX009 (ip), vehicle: saline with Tween-80

Measured: T/C

Cc1nn(C(=S)S)c(C)c1N=Nc1ccccc1C(F)(F)F
inactive: dose: 3.12 mg/kg/injection, schedule: Q04DX002 (ip), vehicle: saline with Tween-80 99 % of control and 102 % of control | dose: 6.25 mg/kg/injection, schedule: Q04DX002 (ip), vehicle: saline with Tween-80 100 % of control | dose: 12.5 mg/kg/injection, schedule: Q04DX002 (ip), vehicle: saline with Tween-80 108 % of control and 94 % of control | [1] 103 % of control and 86 % of control and 89 % of control | [2] 96 % of control | [3] 89 % of control | [4] 105 % of control

COc1ccc2c(c1)OC(C)(C)C(c1ccccc1)=C2c1ccc(O)cc1
inactive: dose: 15.0 mg/kg/injection, schedule: Q01DX005 (ip), vehicle: saline with Tween-80 97 % of control | dose: 30.0 mg/kg/injection, schedule: Q01DX005 (ip), vehicle: saline with Tween-80 92 % of control | [5] 95 % of control

CCN(CC)c1ccc(C=C2C(=O)NC(=S)NC2=O)cc1
inactive: dose: 25.0 mg/kg/injection, schedule: Q01DX005 (ip), vehicle: Klucel (hydroxypropylcellulose) (HPC) 101 % of control | [6] 100 % of control | [7] 101 % of control | [8] 100 % of control

COc1ccccc1-c1cn(O)c2nc(=N)nc(N)c-2n1
inactive: [9] 91 % of control | [10] 89 % of control | dose: 200.0 mg/kg/injection, schedule: Q04DX003 (ip), vehicle: saline with Tween-80 99 % of control | dose: 400.0 mg/kg/injection, schedule: Q04DX003 (ip), vehicle: saline with Tween-80 107 % of control

CCCC(CCC)NCC(O)c1cc(-c2ccc(C(F)(F)F)cc2)nc(C(F)(F)F)c1 (centres undefined)
inactive: [11] 102 % of control | [12] 107 % of control | [13] 100 % of control and 91 % of control

CCOC(=O)c1c(N)c(C(=O)c2ccccc2)n2ccc3ccccc3c12
inactive: dose: 100.0 mg/kg/injection, schedule: Q04DX002 (ip), vehicle: saline with Tween-80 100 % of control | [3] 99 % of control | [4] 92 % of control

CC(Cl)C(=O)N(C)c1ccccc1 (centres undefined)
inactive: dose: 100.0 mg/kg/injection, schedule: Q04DX003 (ip), vehicle: Klucel (hydroxypropylcellulose) (HPC) 96 % of control | dose: 200.0 mg/kg/injection, schedule: Q04DX003 (ip), vehicle: Klucel (hydroxypropylcellulose) (HPC) 92 % of control

C#CC1(NC(=O)c2ccccc2C(=O)Nc2cccc(C(F)(F)F)c2)CCCCC1
inactive: [13] 97 % of control | [14] 89 % of control | [15] 89 % of control

Oc1ccc2ccc3cccc4ccc1c2c34
inactive: [16] 100 % of control | dose: 100.0 mg/kg/injection, schedule: Q01DX005 (ip), vehicle: saline with Tween-80 100 % of control | [17] 100 % of control

CN=C(N)N/N=C(\c1ccc(Cl)cc1)c1ccc([N+](=O)[O-])cc1Cl
inactive: [1] 100 % of control | [2] 101 % of control

CCOC(=O)N1CCN(C(=S)N/N=C(\C)c2ncccn2)CC1
inactive: dose: 6.25 mg/kg/injection, schedule: Q01DX005 (ip), vehicle: saline with Tween-80 123 % of control | [18] 97 % of control

CC(=O)OCCOCNC(=S)NN
inactive: [5] 101 % of control | [19] 101 % of control | [20] 90 % of control

Cc1ccccc1C1=NC2(CCCCC2)N=C1NN
inactive: dose: 50.0 mg/kg/injection, schedule: Q01DX009 (ip), vehicle: Klucel (hydroxypropylcellulose) (HPC) 104 % of control | dose: 100.0 mg/kg/injection, schedule: Q01DX009 (ip), vehicle: Klucel (hydroxypropylcellulose) (HPC) 98 % of control | dose: 200.0 mg/kg/injection, schedule: Q01DX009 (ip), vehicle: Klucel (hydroxypropylcellulose) (HPC) 91 % of control

CCOP(=O)(OCC)C(=O)c1ccccc1
inactive: [21] 100 % of control | [22] 103 % of control | dose: 240.0 mg/kg/injection, schedule: Q01DX005 (ip), vehicle: saline 105 % of control

COC(=O)NC(=S)Nc1nncs1
inactive: dose: 25.0 mg/kg/injection, schedule: Q04DX003 (ip), vehicle: saline with Tween-80 101 % of control | [9] 105 % of control | [10] 105 % of control

CCOC(=O)c1c(-c2ccccc2)csc1NC(=O)CN1CCOCC1
inactive: [18] 98 % of control | dose: 25.0 mg/kg/injection, schedule: Q01DX005 (ip), vehicle: saline with Tween-80 90 % of control | [16] 86 % of control | [17] 88 % of control

NC(=O)c1[nH]ncc1C1OCCC1O (centres undefined)
inactive: dose: 100.0 mg/kg/injection, schedule: Q01DX001 (ip), vehicle: saline with Tween-80 100 % of control | dose: 200.0 mg/kg/injection, schedule: Q01DX001 (ip), vehicle: saline with Tween-80 100 % of control | dose: 400.0 mg/kg/injection, schedule: Q01DX001 (ip), vehicle: saline with Tween-80 100 % of control

COc1ccc2nc3cc(Cl)ccc3c(NCC3CCCN4CCCCC34)c2c1 (centres undefined)
inactive: dose: 12.5 mg/kg/injection, schedule: Q01DX005 (ip), vehicle: distilled water + Tween-80 98 % of control | dose: 25.0 mg/kg/injection, schedule: Q01DX005 (ip), vehicle: distilled water + Tween-80 103 % of control | dose: 50.0 mg/kg/injection, schedule: Q01DX005 (ip), vehicle: distilled water + Tween-80 104 % of control | dose: 100.0 mg/kg/injection, schedule: Q01DX005 (ip), vehicle: distilled water + Tween-80 113 % of control

COc1cccc(C2c3cc4c(cc3OC(C)(N3CCCC3)C2C)OCO4)c1O (centres undefined)
inactive: [5] 99 % of control | [19] 102 % of control | [20] 89 % of control

CC(CN(C)C)C(=O)/C=C/c1ccc(Cl)cc1 (centres undefined)
inactive: [21] 118 % of control | [22] 122 % of control

CCCCCCCCCC(=O)c1ccc(O)c(O)c1O
inactive: dose: 100.0 mg/kg/injection, schedule: Q01DX009 (ip), vehicle: saline 100 % of control | dose: 200.0 mg/kg/injection, schedule: Q01DX009 (ip), vehicle: saline 105 % of control

Clc1c(Cl)c(C[P+](CCP(c2ccccc2)c2ccccc2)(c2ccccc2)c2ccccc2)c(Cl)c(Cl)c1C[P+](CCP(c1ccccc1)c1ccccc1)(c1ccccc1)c1ccccc1
inactive: [11] 120 % of control

Cn1c(=O)c2nc3n(c2n(C)c1=O)CCC(C)(c1ccccc1)O3 (centres undefined)
inactive: [5] 96 % of control | [19] 91 % of control | [20] 91 % of control

COC(=O)c1cccc(OC)c1OC
inactive: [14] 109 % of control | [15] 100 % of control | [23] 109 % of control

CN1C(=O)CC(=O)N(c2ccccc2)c2cc(Cl)ccc21
inactive: [6] 103 % of control | [7] 97 % of control

CC(=O)Nc1c(Cl)cc(Cl)c2c1Cc1cc(Cl)ccc1-2
inactive: [6] 88 % of control | [7] 94 % of control | [8] 112 % of control

CCC(C)n1c(C)nc2cc(C(F)(F)F)cc(N)c21 (centres undefined)
inactive: dose: 50.0 mg/kg/injection, schedule: Q01DX009 (ip), vehicle: saline + alcohol 99 % of control | dose: 100.0 mg/kg/injection, schedule: Q01DX009 (ip), vehicle: saline + alcohol 99 % of control

CCCCCCCCCCCC(=O)OOC(C)(C)C
inactive: [5] 100 % of control | [19] 102 % of control | [20] 97 % of control

COc1cc(C(=O)CCCC(=O)O)cc(OC)c1OC
inactive: [13] 96 % of control | [14] 92 % of control | [15] 88 % of control

CN1CCC(C#N)(c2ccccn2)CC1
inactive: dose: 2.5 mg/kg/injection, schedule: Q01DX009 (ip), vehicle: saline 100 % of control | dose: 5.0 mg/kg/injection, schedule: Q01DX009 (ip), vehicle: saline 109 % of control | dose: 10.0 mg/kg/injection, schedule: Q01DX009 (ip), vehicle: saline 100 % of control

Cc1sc2ccccc2[n+]1CCC(=O)O
inactive: [13] 100 % of control | [14] 100 % of control | [15] 98 % of control | [23] 98 % of control

O=C(O)c1c(O)ccc(O)c1C(=O)O
inactive: [5] 101 % of control | [19] 92 % of control | [20] 97 % of control

ClCc1cccc2c(CCl)cccc12
inactive: [11] 113 % of control | [12] 110 % of control and 124 % of control | [13] 121 % of control

— PubChem BioAssay AID330 (DTP/NCI, 2004)
